Assay results from paper PMC5433425 (PeerJ, 2017).
Values joined by “and” are separate entries in the source; they are usually repeats but may differ in a detail not shown here. Equal values may be shown once. Read-outs that look alike come from different tables or passages of the source.

What was measured:
E. coli AG100 [1] = experiment: EtBr accumulation by real-time fluorometry; settings: EtBr 1 µg/ml + inhibitor 80 µM
[2] = system: E. coli AG100A (AcrAB pump-deficient); experiment: MIC, broth microdilution; type: cell-based, Escherichia coli; settings: Escherichia coli
E. coli AG100tet [3] = experiment: microbe, parasite or virus in culture; type: cell-based, Escherichia coli; settings: Escherichia coli, AG100TET
Method: (§1) The assays were performed in triplicate and the MIC value was given as result of at least two concordant values.

E. coli AG100 [4] = experiment: Membrane permeability assay (Live/Dead BacLight)
E. coli AG100tet [5] = experiment: EtBr accumulation by real-time fluorometry; settings: EtBr 2 µg/ml + inhibitor 80 µM
E. coli AG100 [6] = experiment: Checkerboard synergy assay (MIC of antibiotics/EtBr with efflux inhibitor); type: cell-based, Escherichia coli; settings: for MIC: Escherichia coli
Method: as §1

E. coli AG100A = settings: EtBr […] + inhibitor 20 µM

`CN(C)CCCN1c2ccccc2Sc2ccc(Cl)cc21` [CPZ, chlorpromazine] was tested, and the EtBr fluorescence (E. coli AG100 [1]; cycle 1) was 6.13, the EtBr fluorescence (E. coli AG100 [1]; cycle 2) was 8.192 and the EtBr fluorescence (E. coli AG100 [1]; cycle 3) was 10.0781. The EtBr fluorescence (E. coli AG100 [1]; cycle 4) was 12.1665, the EtBr fluorescence (E. coli AG100 [1]; cycle 5) was 14.1022 and the EtBr fluorescence (E. coli AG100 [1]; cycle 6) was 16.1694. It also gave an EtBr fluorescence (E. coli AG100 [1]; cycle 7) of 18.3713, an EtBr fluorescence (E. coli AG100 [1]; cycle 8) of 20.6676 and an EtBr fluorescence (E. coli AG100 [1]; cycle 9) of 22.7314. It also gave an EtBr fluorescence (E. coli AG100 [1]; cycle 10) of 24.8681, an EtBr fluorescence (E. coli AG100 [1]; cycle 11) of 27.4474 and an EtBr fluorescence (E. coli AG100 [1]; cycle 12) of 29.5933. It also gave an EtBr fluorescence (E. coli AG100 [1]; cycle 13) of 31.7973, an EtBr fluorescence (E. coli AG100 [1]; cycle 14) of 34.5154 and an EtBr fluorescence (E. coli AG100 [1]; cycle 15) of 36.8928. For the same compound, the EtBr fluorescence (E. coli AG100 [1]; cycle 16) was 39.2786, the EtBr fluorescence (E. coli AG100 [1]; cycle 17) was 41.9426 and the EtBr fluorescence (E. coli AG100 [1]; cycle 18) was 44.0663. It also gave an EtBr fluorescence (E. coli AG100 [1]; cycle 19) of 46.4485, an EtBr fluorescence (E. coli AG100 [1]; cycle 20) of 49.5818 and an EtBr fluorescence (E. coli AG100 [1]; cycle 21) of 51.5786. For the same compound, the EtBr fluorescence (E. coli AG100 [1]; cycle 22) was 54.5618, the EtBr fluorescence (E. coli AG100 [1]; cycle 23) was 56.7461 and the EtBr fluorescence (E. coli AG100 [1]; cycle 24) was 59.3586. It also gave an EtBr fluorescence (E. coli AG100 [1]; cycle 25) of 62.2682, an EtBr fluorescence (E. coli AG100 [1]; cycle 26) of 64.3897 and an EtBr fluorescence (E. coli AG100 [1]; cycle 27) of 67.0371. The EtBr fluorescence (E. coli AG100 [1]; cycle 28) was 69.6952, the EtBr fluorescence (E. coli AG100 [1]; cycle 29) was 72.3896 and the EtBr fluorescence (E. coli AG100 [1]; cycle 30) was 75.3315. For the same compound, the MIC [2] was 60 µg/mL and 169 µM, the MIC (E. coli AG100tet [3]; read-out: MIC of EtBr in presence of the efflux inhibitor, AG100tet, inhibitor 40 μM) was 256 µg/mL and the MIC (E. coli AG100tet [3]; read-out: MIC of EtBr in presence of the efflux inhibitor, AG100tet, inhibitor 80 μM) was 128 µg/mL. The MIC (E. coli AG100tet [3]; read-out: MIC of EtBr in presence of the efflux inhibitor, AG100tet, inhibitor 160 μM) was 128 µg/mL, the MIC (E. coli AG100tet [3]; read-out: MIC of OFX in presence of the efflux inhibitor, AG100tet, inhibitor 40 μM) was 0.5 µg/mL and the MIC (E. coli AG100tet [3]; read-out: MIC of OFX in presence of the efflux inhibitor, AG100tet, inhibitor 80 μM) was 0.5 µg/mL. The MIC (E. coli AG100tet [3]; read-out: MIC of OFX in presence of the efflux inhibitor, AG100tet, inhibitor 160 μM) was 0.25 µg/mL, the MIC (E. coli AG100tet [3]; read-out: MIC of OXA in presence of the efflux inhibitor, AG100tet, inhibitor 40 μM) was > 2050 µg/mL and the MIC (E. coli AG100tet [3]; read-out: MIC of OXA in presence of the efflux inhibitor, AG100tet, inhibitor 80 μM) was 2050 µg/mL. It also gave an MIC (E. coli AG100tet [3]; read-out: MIC of OXA in presence of the efflux inhibitor, AG100tet, inhibitor 160 μM) of 1020 µg/mL, an MIC (E. coli AG100tet [3]; read-out: MIC of TET in presence of the efflux inhibitor, AG100tet, inhibitor 40 μM) of 32 µg/mL and an MIC (E. coli AG100tet [3]; read-out: MIC of TET in presence of the efflux inhibitor, AG100tet, inhibitor 80 μM) of 32 µg/mL. The MIC (E. coli AG100tet [3]; read-out: MIC of TET in presence of the efflux inhibitor, AG100tet, inhibitor 160 μM) was 16 µg/mL, the “BacLight Live/Dead fluorescence 485/20,528/20” value (E. coli AG100 [4]; 80 uM, raw well reading) was 104 and 88 and the “BacLight Live/Dead fluorescence 485/20,590/35” value (E. coli AG100 [4]; 80 uM, raw well reading) was 30 and 24. The “membrane permeability increase / membrane permeation” value (E. coli AG100 [4]; AG100, 80 µM) was 18%, the EtBr fluorescence (E. coli AG100tet [5]; cycle 1) was 9.834 and the EtBr fluorescence (E. coli AG100tet [5]; cycle 2) was 10.8502. It also gave an EtBr fluorescence (E. coli AG100tet [5]; cycle 3) of 12.3051, an EtBr fluorescence (E. coli AG100tet [5]; cycle 4) of 13.857 and an EtBr fluorescence (E. coli AG100tet [5]; cycle 5) of 15.5494. For the same compound, the EtBr fluorescence (E. coli AG100tet [5]; cycle 6) was 17.3058, the EtBr fluorescence (E. coli AG100tet [5]; cycle 7) was 19.3992 and the EtBr fluorescence (E. coli AG100tet [5]; cycle 8) was 20.8092. The EtBr fluorescence (E. coli AG100tet [5]; cycle 9) was 23.1444, the EtBr fluorescence (E. coli AG100tet [5]; cycle 10) was 25.4323 and the EtBr fluorescence (E. coli AG100tet [5]; cycle 11) was 27.4946. It also gave an EtBr fluorescence (E. coli AG100tet [5]; cycle 12) of 29.7214, an EtBr fluorescence (E. coli AG100tet [5]; cycle 13) of 31.9876 and an EtBr fluorescence (E. coli AG100tet [5]; cycle 14) of 34.2074. For the same compound, the EtBr fluorescence (E. coli AG100tet [5]; cycle 15) was 36.9702, the EtBr fluorescence (E. coli AG100tet [5]; cycle 16) was 39.6127 and the EtBr fluorescence (E. coli AG100tet [5]; cycle 17) was 42.5123. For the same compound, the EtBr fluorescence (E. coli AG100tet [5]; cycle 18) was 45.4508, the EtBr fluorescence (E. coli AG100tet [5]; cycle 19) was 48.5847 and the EtBr fluorescence (E. coli AG100tet [5]; cycle 20) was 50.7436. The EtBr fluorescence (E. coli AG100tet [5]; cycle 21) was 54.1808, the EtBr fluorescence (E. coli AG100tet [5]; cycle 22) was 57.0724 and the EtBr fluorescence (E. coli AG100tet [5]; cycle 23) was 59.5808. For the same compound, the EtBr fluorescence (E. coli AG100tet [5]; cycle 24) was 63.2028, the EtBr fluorescence (E. coli AG100tet [5]; cycle 25) was 66.0088 and the EtBr fluorescence (E. coli AG100tet [5]; cycle 26) was 69.6637. The EtBr fluorescence (E. coli AG100tet [5]; cycle 27) was 72.1, the EtBr fluorescence (E. coli AG100tet [5]; cycle 28) was 75.2829 and the EtBr fluorescence (E. coli AG100tet [5]; cycle 29) was 78.0686. For the same compound, the EtBr fluorescence (E. coli AG100tet [5]; cycle 30) was 80.8335, the “MIC of OFX in presence of the efflux inhibitor” value (E. coli AG100 [6]; AG100, inhibitor 80 μM) was 0.125 µg/mL and the “MIC of OXA in presence of the efflux inhibitor” value (E. coli AG100 [6]; AG100, inhibitor 80 μM) was 512 µg/mL. The MIC (E. coli AG100 [6]; AG100, AG100, inhibitor 160 μM, read-out: MIC of OXA in presence of the efflux inhibitor) was ≤ 1 µg/mL, the MIC (E. coli AG100 [6]; AG100, read-out: MIC of EtBr in presence of the efflux inhibitor) was 25 µg/mL and the MIC (E. coli AG100 [6]; AG100, read-out: MIC of EtBr in presence of the efflux inhibitor, AG100, inhibitor 40 μM) was 100 µg/mL. For the same compound, the MIC (E. coli AG100 [6]; AG100, read-out: MIC of EtBr in presence of the efflux inhibitor, AG100, inhibitor 160 μM) was ≤ 0.39 µg/mL, the MIC (E. coli AG100 [6]; AG100, read-out: MIC of OFX in presence of the efflux inhibitor) was 0.125 µg/mL and the MIC (E. coli AG100 [6]; AG100, read-out: MIC of OFX in presence of the efflux inhibitor, AG100, inhibitor 160 μM) was 0.003 µg/mL. It also gave an MIC (E. coli AG100 [6]; AG100, read-out: MIC of OXA in presence of the efflux inhibitor) of 512 µg/mL, an MIC (E. coli AG100 [6]; AG100, read-out: MIC of TET in presence of the efflux inhibitor, AG100, inhibitor 40 μM) of 1 µg/mL and an MIC (E. coli AG100 [6]; AG100, read-out: MIC of TET in presence of the efflux inhibitor, AG100, inhibitor 80 μM) of 0.5 µg/mL. For the same compound, the MIC (E. coli AG100 [6]; AG100, read-out: MIC of TET in presence of the efflux inhibitor, AG100, inhibitor 160 μM) was ≤ 0.03 µg/mL, the EtBr fluorescence (E. coli AG100A; cycle 1) was 2.607 and the EtBr fluorescence (E. coli AG100A; cycle 2) was 3.106. The EtBr fluorescence (E. coli AG100A; cycle 3) was 3.464, the EtBr fluorescence (E. coli AG100A; cycle 4) was 4.013 and the EtBr fluorescence (E. coli AG100A; cycle 5) was 4.508. The EtBr fluorescence (E. coli AG100A; cycle 6) was 5.005, the EtBr fluorescence (E. coli AG100A; cycle 7) was 5.439 and the EtBr fluorescence (E. coli AG100A; cycle 8) was 6.027. It also gave an EtBr fluorescence (E. coli AG100A; cycle 9) of 6.585, an EtBr fluorescence (E. coli AG100A; cycle 10) of 7.2591 and an EtBr fluorescence (E. coli AG100A; cycle 11) of 7.711. For the same compound, the EtBr fluorescence (E. coli AG100A; cycle 12) was 8.1901, the EtBr fluorescence (E. coli AG100A; cycle 13) was 9.033 and the EtBr fluorescence (E. coli AG100A; cycle 14) was 9.4255. It also gave an EtBr fluorescence (E. coli AG100A; cycle 15) of 10.1045, an EtBr fluorescence (E. coli AG100A; cycle 16) of 10.9436 and an EtBr fluorescence (E. coli AG100A; cycle 17) of 11.4479. For the same compound, the EtBr fluorescence (E. coli AG100A; cycle 18) was 12.2134, the EtBr fluorescence (E. coli AG100A; cycle 19) was 12.6889 and the EtBr fluorescence (E. coli AG100A; cycle 20) was 13.2115. It also gave an EtBr fluorescence (E. coli AG100A; cycle 21) of 13.9156, an EtBr fluorescence (E. coli AG100A; cycle 22) of 14.6607 and an EtBr fluorescence (E. coli AG100A; cycle 23) of 15.4189. It also gave an EtBr fluorescence (E. coli AG100A; cycle 24) of 16.1017, an EtBr fluorescence (E. coli AG100A; cycle 25) of 16.6199 and an EtBr fluorescence (E. coli AG100A; cycle 26) of 17.3366. The EtBr fluorescence (E. coli AG100A; cycle 27) was 18.2879, the EtBr fluorescence (E. coli AG100A; cycle 28) was 18.7671 and the EtBr fluorescence (E. coli AG100A; cycle 29) was 19.416. It also gave an EtBr fluorescence (E. coli AG100A; cycle 30) of 19.8456.
